Assay results: ChEMBL document CHEMBL5316318, “Structural Modification and Pharmacological Evaluation of Substituted Quinoline-5,8-diones as Potent NSD2 Inhibitors” (J Med Chem, 2023)
Activity calls are given as the source filed them. The rule behind the calls is not given here.

What was measured:
[1] = target: Ras-related protein R-Ras2 (Homo sapiens) (UniProt P62070); test: Inhibition of RRAS2 transcriptional activation in human KMS-11 cells assessed as reduction in H3K36me2 level in promoter region by ChIP-qPCR analysis; format: cell-based
KMS-11 [2] = test: Antiproliferative activity against human KMS-11 cells assessed as inhibition of cell growth incubated for 6 days by CCK-8 assay; format: functional, cell-based; details: KMS-11, 144 h
KMS-11 [3] = test: Antitumor activity against human KMS-11 cells xenografted in SCID mouse assessed as tumor growth inhibition at 150 mg/kg, po administered daily for 21 days and measured every 3 days relative to control; format: functional; details: KMS-11, 504 h, time 21 day, read-out: TGI
[4] = Half life in ICR mouse at 3 mg/kg, po measured for 24 hrs by LC-MS/MS analysis; format: ADME, organism-based; details: in vivo
MOLT-4 = test: Antiproliferative activity against human MOLT-4 cells harboring wild type NSD2 assessed as inhibition of cell growth incubated for 6 days by CCK-8 assay; format: functional, cell-based; details: MOLT-4, 144 h
[5] = target: Hepatocyte growth factor receptor (Homo sapiens) (UniProt P08581); test: Inhibition of MET transcriptional activation in human KMS-11 cells assessed as reduction in MET mRNA expression at 0.5 uM by qRT-PCR analysis; format: cell-based
OPM-2 = test: Antiproliferative activity against NSD2 translocated human OPM-2 cells assessed as inhibition of cell growth incubated for 6 days by CCK-8 assay; format: functional, cell-based; details: OPM-2, 144 h
KMS-11 [6] = test: Induction of apoptosis in human KMS-11 cells assessed as upregulation of BIM protein expression at 0.2 to 0.8 uM by Western blot analysis; format: functional, cell-based; details: dose 0.2-0.8 µM
[7] = target: Neural cell adhesion molecule 1 (Homo sapiens) (UniProt P13591); test: Inhibition of NCAM1 transcriptional activation in human KMS-11 cells assessed as reduction in NCAM1 mRNA expression at 0.5 uM by qRT-PCR analysis; format: cell-based
[8] = AUClast in ICR mouse at 1 mg/kg, iv measured for 24 hrs by LC-MS/MS analysis; format: ADME, organism-based; set-up: dose 1 mg/kg, time 24 hrs, route iv; details: in vivo
KMS-11 [9] = test: Induction of apoptosis in human KMS-11 cells assessed as upregulation of BID protein expression at 0.2 to 0.8 uM by Western blot analysis; format: functional, cell-based; details: dose 0.2-0.8 µM
KMS-11 [10] = test: Induction of apoptosis in human KMS-11 cells assessed as dead cells at 0.5 uM incubated for 72 hrs by Annexin V-FITC/PI staining based flow cytometry analysis (reference value: 6.48%); format: functional
[11] = target: Histone-arginine methyltransferase CARM1 (Homo sapiens, UniProt Q86X55); test: Inhibition of PRMT4 (unknown origin) by AlphaLISA assay
[12] = target: Histone-lysine N-methyltransferase NSD3 (Homo sapiens, UniProt Q9BZ95); test: Inhibition of NSD3 (unknown origin)
CMK = test: Antiproliferative activity against human CMK cells harboring wild type NSD2 assessed as inhibition of cell growth incubated for 6 days by CCK-8 assay; format: functional, cell-based; details: 144 h
[13] = target: Basement membrane-specific heparan sulfate proteoglycan core protein (Homo sapiens) (UniProt P98160); test: Inhibition of HSPG2 transcriptional activation in human KMS-11 cells assessed as reduction in HSPG2 mRNA expression at 0.5 uM by qRT-PCR analysis; format: cell-based
[14] = target: Histone-lysine N-methyltransferase 2A (Homo sapiens, UniProt Q03164); test: Inhibition of MLL1 (unknown origin) using SAM as substrate preincubated for 10 mins followed by substrate addition and measured after 4 hrs by HTRF analysis
U-937 = test: Antiproliferative activity against human U-937 cells harboring wild type NSD2 assessed as inhibition of cell growth incubated for 6 days by CCK-8 assay; format: functional, cell-based; details: U-937, 144 h
[15] = Toxicity in SCID mouse xenografted with human KMS-11 cells assessed as adverse effects at 75 to 150 mg/kg, po administered daily for 21 days and measured every 3 days; format: organism-based; details: in vivo, 504 h, dose 75-150 mg/kg, time 21 day
[16] = target: Serine/threonine-protein kinase mTOR (Homo sapiens) (UniProt P42345); test: Modulation of mTOR signaling pathway in human KMS-11 cells at 1 uM incubated for 48 hrs by RNA-Seq analysis; format: cell-based; details: filed as modulator
[17] = Toxicity in SCID mouse xenografted with human KMS-11 cells assessed as body weight loss at 75 to 150 mg/kg, po administered daily for 21 days and measured every 3 days; format: organism-based; details: in vivo, 504 h, dose 75-150 mg/kg, time 21 day
KMS-11 [18] = test: Induction of apoptosis in human KMS-11 cells assessed as late apoptotic cells at 0.2 uM incubated for 72 hrs by Annexin V-FITC/PI staining based flow cytometry analysis (reference value: 6.47%); format: functional
KMS-11 [19] = test: Induction of apoptosis in human KMS-11 cells assessed as dead cells at 0.8 uM incubated for 72 hrs by Annexin V-FITC/PI staining based flow cytometry analysis (reference value: 6.48%); format: functional
KMS-11 [20] = test: Induction of apoptosis in human KMS-11 cells assessed as live cells at 0.8 uM incubated for 72 hrs by Annexin V-FITC/PI staining based flow cytometry analysis (reference value: 83.1%); format: functional
[21] = target: Protein arginine N-methyltransferase 1 (Homo sapiens, UniProt Q99873); test: Inhibition of PRMT1 (unknown origin) by AlphaLISA assay
[22] = target: Histone-lysine N-methyltransferase, H3 lysine-36 specific (Homo sapiens, UniProt Q96L73); test: Inhibition of NSD1 (unknown origin)
HL-60 = test: Antiproliferative activity against human HL-60 cells harboring wild type NSD2 assessed as inhibition of cell growth incubated for 6 days by CCK-8 assay; format: functional, cell-based; details: HL-60, 144 h
[23] = target: Protein arginine N-methyltransferase 5 (Homo sapiens, UniProt O14744); test: Inhibition of PRMT5 (unknown origin) by AlphaLISA assay
[24] = target: Histone-lysine N-methyltransferase 2D (Homo sapiens, UniProt O14686); test: Inhibition of MLL2 (unknown origin) using SAM as substrate preincubated for 10 mins followed by substrate addition and measured after 4 hrs by HTRF analysis
KMS-11 [25] = test: Modulation of FoxO signaling pathway in human KMS-11 cells at 1 uM incubated for 48 hrs by RNA-Seq analysis; format: cell-based; details: filed as modulator

Histone-lysine N-methyltransferase NSD3, sequence (Q9BZ95 whole entry): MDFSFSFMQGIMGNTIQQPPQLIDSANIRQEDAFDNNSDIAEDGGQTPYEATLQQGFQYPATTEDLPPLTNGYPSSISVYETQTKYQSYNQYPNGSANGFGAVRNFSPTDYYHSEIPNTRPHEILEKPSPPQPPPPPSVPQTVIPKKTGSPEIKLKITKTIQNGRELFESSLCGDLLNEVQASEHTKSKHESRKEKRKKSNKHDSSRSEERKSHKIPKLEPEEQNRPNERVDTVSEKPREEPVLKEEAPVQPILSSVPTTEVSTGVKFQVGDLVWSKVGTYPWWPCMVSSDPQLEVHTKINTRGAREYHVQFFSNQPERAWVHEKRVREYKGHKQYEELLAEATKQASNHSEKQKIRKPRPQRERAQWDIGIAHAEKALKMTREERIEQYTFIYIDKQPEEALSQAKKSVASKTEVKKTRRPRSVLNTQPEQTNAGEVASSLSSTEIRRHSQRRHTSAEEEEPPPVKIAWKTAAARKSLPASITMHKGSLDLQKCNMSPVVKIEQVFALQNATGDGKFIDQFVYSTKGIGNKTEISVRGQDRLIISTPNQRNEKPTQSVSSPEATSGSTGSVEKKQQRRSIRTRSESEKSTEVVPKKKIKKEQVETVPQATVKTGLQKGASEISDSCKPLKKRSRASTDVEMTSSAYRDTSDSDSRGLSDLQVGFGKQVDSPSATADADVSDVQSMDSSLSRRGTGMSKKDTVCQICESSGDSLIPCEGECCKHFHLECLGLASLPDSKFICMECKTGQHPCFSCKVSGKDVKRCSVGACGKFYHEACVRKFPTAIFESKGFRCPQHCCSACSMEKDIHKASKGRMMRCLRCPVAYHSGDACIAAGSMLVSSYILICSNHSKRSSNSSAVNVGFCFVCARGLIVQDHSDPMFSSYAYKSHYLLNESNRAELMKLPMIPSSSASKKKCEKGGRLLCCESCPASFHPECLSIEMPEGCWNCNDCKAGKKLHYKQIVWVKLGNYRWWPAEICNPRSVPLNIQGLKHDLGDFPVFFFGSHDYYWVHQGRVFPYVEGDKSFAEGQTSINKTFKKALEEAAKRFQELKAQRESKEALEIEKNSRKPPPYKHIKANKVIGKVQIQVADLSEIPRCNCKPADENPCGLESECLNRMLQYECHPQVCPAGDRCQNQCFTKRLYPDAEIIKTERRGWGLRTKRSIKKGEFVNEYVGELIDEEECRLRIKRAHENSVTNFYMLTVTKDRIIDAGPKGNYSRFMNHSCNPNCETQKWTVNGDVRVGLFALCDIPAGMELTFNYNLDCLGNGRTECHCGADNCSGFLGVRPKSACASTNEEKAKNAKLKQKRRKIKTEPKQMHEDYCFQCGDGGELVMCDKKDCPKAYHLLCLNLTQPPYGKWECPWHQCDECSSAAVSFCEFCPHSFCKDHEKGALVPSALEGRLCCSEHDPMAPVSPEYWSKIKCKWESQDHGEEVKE
Protein arginine N-methyltransferase 1, sequence (Q99873 whole entry): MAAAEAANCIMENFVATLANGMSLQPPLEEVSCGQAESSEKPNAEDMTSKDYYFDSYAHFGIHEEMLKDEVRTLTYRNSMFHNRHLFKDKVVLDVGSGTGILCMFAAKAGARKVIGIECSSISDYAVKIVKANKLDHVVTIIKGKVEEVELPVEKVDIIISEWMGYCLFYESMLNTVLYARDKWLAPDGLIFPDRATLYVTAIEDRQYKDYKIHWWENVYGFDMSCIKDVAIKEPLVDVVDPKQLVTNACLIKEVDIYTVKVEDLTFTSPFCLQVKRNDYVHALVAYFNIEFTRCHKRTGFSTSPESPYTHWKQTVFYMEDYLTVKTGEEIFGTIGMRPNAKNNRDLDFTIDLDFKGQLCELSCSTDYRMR
Neural cell adhesion molecule 1 (Homo sapiens), sequence (P13591 whole entry): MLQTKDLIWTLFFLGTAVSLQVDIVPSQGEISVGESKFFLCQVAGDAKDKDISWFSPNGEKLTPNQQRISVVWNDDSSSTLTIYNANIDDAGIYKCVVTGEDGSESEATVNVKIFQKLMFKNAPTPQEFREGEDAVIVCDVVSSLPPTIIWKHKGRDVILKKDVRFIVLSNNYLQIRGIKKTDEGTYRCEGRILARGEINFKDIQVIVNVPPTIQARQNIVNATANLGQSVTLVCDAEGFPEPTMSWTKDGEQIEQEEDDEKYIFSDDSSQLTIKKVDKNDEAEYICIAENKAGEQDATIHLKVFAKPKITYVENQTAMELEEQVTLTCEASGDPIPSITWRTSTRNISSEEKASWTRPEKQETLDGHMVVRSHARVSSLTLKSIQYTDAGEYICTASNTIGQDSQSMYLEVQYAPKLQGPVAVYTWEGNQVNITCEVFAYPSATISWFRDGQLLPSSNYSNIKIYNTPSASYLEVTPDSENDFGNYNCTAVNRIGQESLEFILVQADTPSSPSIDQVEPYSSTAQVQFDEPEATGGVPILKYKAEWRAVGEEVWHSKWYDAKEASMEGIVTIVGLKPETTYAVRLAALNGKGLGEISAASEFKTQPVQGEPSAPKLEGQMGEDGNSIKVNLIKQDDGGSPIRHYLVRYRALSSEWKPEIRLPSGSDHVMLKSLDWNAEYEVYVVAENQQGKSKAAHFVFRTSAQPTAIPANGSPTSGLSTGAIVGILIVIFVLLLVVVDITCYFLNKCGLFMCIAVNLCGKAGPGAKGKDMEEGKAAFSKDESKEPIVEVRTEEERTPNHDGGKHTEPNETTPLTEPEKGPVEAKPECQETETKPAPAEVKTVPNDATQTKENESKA
Protein arginine N-methyltransferase 5, sequence (O14744 whole entry): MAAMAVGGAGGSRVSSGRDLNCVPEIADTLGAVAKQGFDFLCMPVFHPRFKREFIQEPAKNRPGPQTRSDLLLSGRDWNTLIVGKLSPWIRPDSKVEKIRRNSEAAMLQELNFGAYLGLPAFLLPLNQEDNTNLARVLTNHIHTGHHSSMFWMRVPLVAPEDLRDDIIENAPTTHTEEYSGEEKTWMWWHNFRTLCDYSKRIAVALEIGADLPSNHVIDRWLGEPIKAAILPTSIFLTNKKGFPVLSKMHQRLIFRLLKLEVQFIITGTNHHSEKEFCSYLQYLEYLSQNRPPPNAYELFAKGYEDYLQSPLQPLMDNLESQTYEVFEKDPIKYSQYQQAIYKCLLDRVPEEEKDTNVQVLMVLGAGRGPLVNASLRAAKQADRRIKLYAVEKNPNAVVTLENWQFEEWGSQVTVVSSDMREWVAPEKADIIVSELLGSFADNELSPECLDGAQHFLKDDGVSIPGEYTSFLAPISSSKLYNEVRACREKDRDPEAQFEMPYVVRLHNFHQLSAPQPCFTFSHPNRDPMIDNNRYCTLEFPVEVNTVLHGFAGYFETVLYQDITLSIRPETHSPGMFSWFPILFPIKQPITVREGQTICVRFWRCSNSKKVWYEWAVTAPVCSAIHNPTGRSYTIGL
Hepatocyte growth factor receptor (Homo sapiens), sequence (P08581 whole entry): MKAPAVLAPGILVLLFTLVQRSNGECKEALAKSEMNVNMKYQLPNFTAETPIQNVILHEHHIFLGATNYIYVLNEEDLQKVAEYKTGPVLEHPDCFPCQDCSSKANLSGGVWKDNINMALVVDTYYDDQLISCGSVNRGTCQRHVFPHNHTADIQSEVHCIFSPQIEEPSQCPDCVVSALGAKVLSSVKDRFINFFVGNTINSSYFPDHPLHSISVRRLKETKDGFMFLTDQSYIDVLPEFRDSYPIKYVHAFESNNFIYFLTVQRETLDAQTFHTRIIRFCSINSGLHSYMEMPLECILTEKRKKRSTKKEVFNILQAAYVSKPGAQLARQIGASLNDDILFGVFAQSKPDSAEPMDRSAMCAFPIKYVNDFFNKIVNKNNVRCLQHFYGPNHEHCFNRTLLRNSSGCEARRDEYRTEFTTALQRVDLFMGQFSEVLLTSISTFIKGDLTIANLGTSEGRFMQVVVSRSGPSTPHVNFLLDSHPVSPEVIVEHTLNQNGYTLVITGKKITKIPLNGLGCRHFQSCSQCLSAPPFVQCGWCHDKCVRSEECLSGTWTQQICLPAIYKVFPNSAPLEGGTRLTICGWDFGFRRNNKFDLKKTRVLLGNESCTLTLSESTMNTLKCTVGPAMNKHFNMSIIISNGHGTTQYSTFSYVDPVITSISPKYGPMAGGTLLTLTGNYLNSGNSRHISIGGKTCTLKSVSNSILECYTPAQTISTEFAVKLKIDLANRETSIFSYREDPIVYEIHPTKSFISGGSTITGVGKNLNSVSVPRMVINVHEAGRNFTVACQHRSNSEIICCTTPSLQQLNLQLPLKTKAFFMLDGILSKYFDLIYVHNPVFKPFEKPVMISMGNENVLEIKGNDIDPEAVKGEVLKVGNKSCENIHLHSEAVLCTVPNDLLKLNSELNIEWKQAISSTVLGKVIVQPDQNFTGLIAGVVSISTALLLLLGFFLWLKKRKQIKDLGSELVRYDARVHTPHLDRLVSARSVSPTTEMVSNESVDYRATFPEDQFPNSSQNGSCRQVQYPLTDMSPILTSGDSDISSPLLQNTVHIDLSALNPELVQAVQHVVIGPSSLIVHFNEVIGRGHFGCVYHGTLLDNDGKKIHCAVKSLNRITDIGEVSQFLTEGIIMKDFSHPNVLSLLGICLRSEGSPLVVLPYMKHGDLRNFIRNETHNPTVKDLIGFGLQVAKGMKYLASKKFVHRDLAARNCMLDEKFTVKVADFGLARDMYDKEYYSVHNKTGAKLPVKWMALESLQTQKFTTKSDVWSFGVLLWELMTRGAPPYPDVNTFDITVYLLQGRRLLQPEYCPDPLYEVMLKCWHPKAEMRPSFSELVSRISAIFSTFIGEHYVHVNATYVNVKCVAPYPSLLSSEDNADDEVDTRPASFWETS
Ras-related protein R-Ras2 (Homo sapiens), sequence (P62070 whole entry): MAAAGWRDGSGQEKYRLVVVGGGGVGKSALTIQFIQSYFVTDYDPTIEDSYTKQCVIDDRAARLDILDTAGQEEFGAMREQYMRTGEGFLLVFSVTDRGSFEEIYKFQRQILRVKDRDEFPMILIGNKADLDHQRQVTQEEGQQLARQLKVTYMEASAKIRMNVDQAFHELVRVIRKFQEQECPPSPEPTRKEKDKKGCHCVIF

CC#CC(=O)NC12CC(NC3=C(Cl)C(=O)c4ncccc4C3=O)(C1)C2
inhibition [1]: Active | IC50 (KMS-11 [2]): 270 nM | inhibition in vivo at 150 mg/kg (KMS-11 [3]): 58.4% | half-life [4]: 6.71 h | IC50 (MOLT-4): 1230 nM | inhibition [5]: Active | IC50 (OPM-2): 2090 nM | Activity (KMS-11 [6]): Active | inhibition [7]: Active | AUC(0-t) at 24 h [8]: 5180 ng·h/mL | Activity (KMS-11 [9]): Active | Activity (KMS-11 [10]): 6.33% | IC50 [11]: > 10000 nM | IC50 [12]: 750 nM | IC50 (CMK): 2600 nM | inhibition [13]: Active | IC50 [14]: > 10000 nM | IC50 (U-937): 4900 nM | Activity [15]: Non-Toxic | Activity [16]: Active | Activity [17]: Non-Toxic | Activity (KMS-11 [18]): 7.79% | Activity (KMS-11 [19]): 5.98% | Activity (KMS-11 [20]): 55% | IC50 [21]: > 10000 nM | IC50 [22]: 690 nM | IC50 (HL-60): 2660 nM | IC50 [23]: > 10000 nM | IC50 [24]: > 10000 nM | Activity (KMS-11 [25]): Active
